In patent EP4786487A1, “PEPTIDE” (Peptidream Inc, priority 2023, dated 2025):
Where two headings read alike, the source gives them in different places. Starred links: 1 amine or outer side, 2 acyl side, 3 side chain; linkers in the order of their positions; H or OH if unused. Positions of bridges follow the written chain, without caps; N, C: chain ends. Non-standard residues stand in square brackets, D forms with d. Residues, ends and D or L forms follow the SMILES beside them. Groups on a side chain read outwards from the residue. *: point of attachment. Phe(3-OCH2COOH) = N[C@@H](Cc1cccc(OCC(=O)O)c1)C(=O)O; Piperidine(4-CH2CH2CONH2) = NC(=O)CCC1CCN(*)CC1; Phe(4-COOH) = N[C@@H](Cc1ccc(C(=O)O)cc1)C(=O)O; Piperazinyl(4-CH2COOH) = O=C(O)CN1CCN(*)CC1; Gly(decyl) = CCCCCCCCCC[C@H](N)C(=O)O; Gly(N(CH2)3COOH) = O=C(O)CCCNCC(=O)O; X1 = CCCCCCC[C@H](N[*:1])C(=O)[*:2]; NMeF = CN[C@@H](Cc1ccccc1)C(=O)O; 4Pal = N[C@@H](Cc1ccncc1)C(=O)O; NMeE = CN[C@@H](CCC(=O)O)C(=O)O; Cha = N[C@@H](CC1CCCCC1)C(=O)O; d(hCys) = N[C@H](CCS)C(=O)O; NMeA = CN[C@@H](C)C(=O)O; X9 = NC(=O)CC1CCN(*)CC1; Dap = NC[C@H](N)C(=O)O; CO = O=C([*:1])[*:2]; Nme = COCCNCC(=O)O; Sar = CNCC(=O)O

Assays:
[1] = target: T1, Myostatin (Homo sapiens, UniProt O14793); assay: HepG2 reporter gene assay, Evaluation Procedure (2): 2-concentrations assay, myostatin inhibition; assay type: cell-based; conditions: HepG2
T1 construct: active myostatin (also called mature myostatin) is a homodimer consisting of two C-terminal growth factor domains; purchased R&D systems 788-G8/CF
T1 sequence (O14793 267-375): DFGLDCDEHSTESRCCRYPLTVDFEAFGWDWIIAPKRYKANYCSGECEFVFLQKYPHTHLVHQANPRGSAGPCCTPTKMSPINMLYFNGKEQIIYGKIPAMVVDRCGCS
How it was run: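 Myostatin inhibition was measured in a luciferase reporter assay using HepG2 cells transfected with a pGL3 vector containing 12 CAGA repeats upstream of luciferase. After 20 to 24 hours with 10 ng/mL myostatin, cells received One-Glo:PBS (1:1) at 100 µL/well, were shaken for 5 min, and 20 µL/well was moved to 384-well plates and read on an Envision 2104.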

[2] = target: T2, GDF-11 (Homo sapiens, UniProt O95390); assay: HepG2 reporter gene assay, Evaluation Procedure (2): 2-concentrations assay, GDF-11 inhibition; assay type: cell-based; conditions: for inhibition: read-out: inhibition rate (GDF-11 inhibition assay); for inhibition at 0.03 µM: HepG2, peptide 30nM, read-out: GDF11 Inhibition 30nM; for inhibition at 0.03 µM / inhibition at 0.1 µM: GDF-11 10 ng/mL; for inhibition at 0.1 µM: HepG2, peptide 100nM, read-out: GDF11 Inhibition 100nM
T2 construct: purchased R&D systems 1958-GD-G8/CF
T2 sequence (O95390 299-407): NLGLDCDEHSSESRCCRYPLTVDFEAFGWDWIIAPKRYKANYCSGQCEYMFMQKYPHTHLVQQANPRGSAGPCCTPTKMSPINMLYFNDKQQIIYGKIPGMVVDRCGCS
How it was run: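 HepG2 cells carrying the transfected pGL3(CAGA)12-luc reporter, a pGL3 vector with luciferase placed downstream of 12 CAGA repeats, were stimulated with GDF-11 at a final 10 ng/mL together with test peptide. Blank wells received no GDF-11 and no peptide. Plates were incubated 20 to 24 hours at 37°C with 5% CO2. Luminescence from One-Glo substrate was read to calculate percent inhibition.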

[3] = Table 7-3/7-4, myostatin 10 ng/mL, peptide at the higher of the 2 concentrations, read-out: inhibition rate (myostatin inhibition assay)
[4] = Table 7-3/7-4, myostatin 10 ng/mL, peptide at the lower of the 2 concentrations, read-out: inhibition rate (myostatin inhibition assay)
[5] = HepG2, first GDF-11 column of Table 7-3/7-4, GDF-11 10 ng/mL, peptide at the lower of the 2 concentrations
[6] = HepG2, second GDF-11 column of Table 7-3/7-4, GDF-11 10 ng/mL, peptide at the higher of the 2 concentrations
[7] = peptide 30nM, Myostatin 10 ng/mL, read-out: Myostatin Inhibition 30nM
[8] = peptide 100nM, Myostatin 10 ng/mL, read-out: Myostatin Inhibition 100nM

SMILES | inhibition at 0.1 µM [1, 3] | inhibition at 0.03 µM [1, 4] | inhibition [2, 5] | inhibition [2, 6] | inhibition at 0.03 µM [1, 7] | inhibition at 0.1 µM [1, 8] | inhibition at 0.03 µM [2] | inhibition at 0.1 µM [2]
CCCCCCC[C@@H]1NC(=O)[C@H](Cc2ccccc2)N(C)C(=O)[C@H](CCCNC(=N)N)NC(=O)[C@H](Cc2ccc(C(=O)O)cc2)NC(=O)[C@H](Cc2cccc(OCC(=O)O)c2)NC(=O)[C@H](C)N(C)C(=O)[C@H]([C@@H](C)CC)NC(=O)[C@H](Cc2ccccc2)N(C)C(=O)[C@H](Cc2ccc(O)cc2)NC(=O)[C@H](Cc2c[nH]c3ccccc23)NC(=O)[C@H](C)NC(=O)CN(CCCC(=O)O)C(=O)CSCC[C@H](C(=O)O)NC(=O)[C@H](Cc2ccccc2)N(C)C(=O)[C@H](C)N(C)C1=O [Myostatin_99_v441] ({CH2CO}-[Gly(N(CH2)3COOH)]AWY[NMeF]I[NMeA][Phe(3-OCH2COOH)][Phe(4-COOH)]R[NMeF][X1][NMeA][NMeF][d(hCys)]-OH; thioether N-15) | 100% | 100% | 0% | 0% |  |  |  | 
CCCCCCC[C@@H]1NC(=O)[C@H](Cc2ccccc2)N(C)C(=O)[C@H](CCCNC(=N)N)NC(=O)[C@H](Cc2ccc(C(=O)O)cc2)NC(=O)[C@H](Cc2cccc(OCC(=O)O)c2)NC(=O)[C@H](C)N(C)C(=O)[C@H]([C@@H](C)CC)NC(=O)[C@H](Cc2ccccc2)N(C)C(=O)[C@H](Cc2ccc(O)cc2)NC(=O)[C@H](Cc2c[nH]c3ccccc23)NC(=O)[C@H](C)NC(=O)CN(CCCC(=O)O)C(=O)CSC[C@H](C(=O)N2CCC(CCC(N)=O)CC2)NC(=O)[C@H](Cc2ccccc2)N(C)C(=O)[C@H](C)N(C)C1=O [Myostatin_99_v431] ({CH2CO}-[Gly(N(CH2)3COOH)]AWY[NMeF]I[NMeA][Phe(3-OCH2COOH)][Phe(4-COOH)]R[NMeF][X1][NMeA][NMeF][dC]-{Piperidine(4-CH2CH2CONH2)}; thioether N-15) | 100% | 100% | 0% | 0% |  |  |  | 
CCCCCCCCCC[C@@H]1NC(=O)[C@H](CC2CCCCC2)NC(=O)[C@H](CCCNC(=N)N)NC(=O)[C@H](Cc2ccc(C(=O)O)cc2)NC(=O)[C@H](Cc2cccc(OCC(=O)O)c2)NC(=O)CN(C)C(=O)[C@H]([C@@H](C)CC)NC(=O)[C@H](Cc2ccccc2)N(C)C(=O)[C@H](Cc2ccc(O)cc2)NC(=O)[C@H](Cc2c[nH]c3ccccc23)NC(=O)[C@@H](CCCCNC(=O)N2CCN(CC(=O)O)CC2)NC(=O)[C@H](C)NC(=O)CSC[C@H](C(=O)N2CCN(CC(=O)O)CC2)NC(=O)[C@H](Cc2ccccc2)N(C)C(=O)[C@H](C)N(C)C1=O [Myostatin_99_v260] ({CH2CO}-A[dK]([CO-Piperazinyl(4-CH2COOH)])WY[NMeF]I[Sar][Phe(3-OCH2COOH)][Phe(4-COOH)]R[Cha][Gly(decyl)][NMeA][NMeF][dC]-{Piperazinyl(4-CH2COOH)}; thioether N-15) |  |  |  |  | 100% | 100% | 37% | 75%
CCCCCCC[C@@H]1NC(=O)[C@H](Cc2ccccc2)N(C)C(=O)[C@H](CCCNC(=N)N)NC(=O)[C@H](Cc2ccc(C(=O)O)cc2)NC(=O)[C@H](Cc2ccncc2)NC(=O)CN(C)C(=O)[C@H]([C@@H](C)CC)NC(=O)[C@H](Cc2ccccc2)N(C)C(=O)[C@H](Cc2ccc(O)cc2)NC(=O)[C@H](Cc2c[nH]c3ccccc23)NC(=O)[C@H](C)NC(=O)CN(CC(=O)O)C(=O)CSC[C@H](C(=O)O)NC(=O)[C@H](Cc2ccccc2)N(C)C(=O)[C@H](C)N(C)C1=O [Myostatin_99_v222] |  |  |  |  | 93% | 99% | 0% | 8%
CCCCCCC[C@@H]1NC(=O)[C@H](Cc2ccccc2)N(C)C(=O)[C@H](CCCNC(=N)N)NC(=O)[C@H](Cc2ccc(C(=O)O)cc2)NC(=O)[C@H](Cc2ccncc2)NC(=O)CN(C)C(=O)[C@H]([C@@H](C)CC)NC(=O)[C@H](Cc2ccccc2)N(C)C(=O)[C@H](Cc2ccc(O)cc2)NC(=O)[C@H](Cc2c[nH]c3ccccc23)NC(=O)[C@H](C)NC(=O)CN(CCOC)C(=O)CSC[C@H](C(=O)O)NC(=O)[C@H](Cc2ccccc2)N(C)C(=O)[C@H](C)N(C)C1=O [Myostatin_99_v224] ({CH2CO}-[Nme]AWY[NMeF]I[Sar][4Pal][Phe(4-COOH)]R[NMeF][X1][NMeA][NMeF][dC]-OH; thioether N-15) |  |  |  |  | 96% | 99% | 0% | 0%
CC[C@H](C)[C@@H]1NC(=O)[C@H](Cc2ccccc2)N(C)C(=O)[C@H](Cc2ccc(O)cc2)NC(=O)[C@H](Cc2c[nH]c3ccccc23)NC(=O)[C@H](CN)NC(=O)[C@H](C)NC(=O)CSC[C@H](C(=O)N[C@@H](CN)C(N)=O)NC(=O)[C@H](Cc2ccccc2)N(C)C(=O)[C@H](C)N(C)C(=O)[C@H](CC(C)C)NC(=O)[C@H](Cc2ccccc2)N(C)C(=O)[C@H](CCCNC(=N)N)NC(=O)[C@H](Cc2ccc(O)cc2)NC(=O)[C@H](Cc2ccc(O)cc2)NC(=O)CN(C)C1=O [Myostatin_99_Variant_08] ({CH2CO}-A[Dap]WY[NMeF]I[Sar]YYR[NMeF]L[NMeA][NMeF][dC][Dap]-NH2; thioether N-15) |  |  |  |  | 72% | 92% | 7% | 22%
CCCCCCCCCC[C@@H]1NC(=O)[C@H](Cc2ccccc2)N(C)C(=O)[C@H](CCCNC(=N)N)NC(=O)[C@H](Cc2ccc(C(=O)O)cc2)NC(=O)[C@H](Cc2cccc(OCC(=O)O)c2)NC(=O)[C@H]2CCCN2C(=O)[C@H]([C@@H](C)CC)NC(=O)[C@H](Cc2ccccc2)N(C)C(=O)[C@H](Cc2ccc(O)cc2)NC(=O)[C@H](Cc2c[nH]c3ccccc23)NC(=O)[C@H](C)NC(=O)[C@H](C)NC(=O)CSC[C@H](C(=O)N2CCC(CC(N)=O)CC2)NC(=O)[C@H](Cc2ccccc2)N(C)C(=O)[C@H](CCC(=O)O)N(C)C1=O [Myostatin_99_v347] ({CH2CO}-AAWY[NMeF]I[dP][Phe(3-OCH2COOH)][Phe(4-COOH)]R[NMeF][Gly(decyl)][NMeE][NMeF][dC]-X9; thioether N-15) | 100% | 100% | 0% | 8% |  |  |  | 
CCCCCCCCCC[C@@H]1NC(=O)[C@H](CC2CCCCC2)NC(=O)[C@H](CCCNC(=N)N)NC(=O)[C@H](Cc2ccc(C(=O)O)cc2)NC(=O)[C@H](CCCCNC(=O)N2CCN(CC(=O)O)CC2)NC(=O)CN(C)C(=O)[C@H]([C@@H](C)CC)NC(=O)[C@H](Cc2ccccc2)N(C)C(=O)[C@H](Cc2ccc(O)cc2)NC(=O)[C@H](Cc2c[nH]c3ccccc23)NC(=O)[C@@H](CCCCNC(=O)N2CCN(CC(=O)O)CC2)NC(=O)[C@H](C)NC(=O)CSC[C@H](C(=O)N2CCN(CC(=O)O)CC2)NC(=O)[C@H](Cc2ccccc2)N(C)C(=O)[C@H](C)N(C)C1=O [Myostatin_99_v268] ({CH2CO}-A[dK]([CO-Piperazinyl(4-CH2COOH)])WY[NMeF]I[Sar]K([CO-Piperazinyl(4-CH2COOH)])[Phe(4-COOH)]R[Cha][Gly(decyl)][NMeA][NMeF][dC]-{Piperazinyl(4-CH2COOH)}; thioether N-15) |  |  |  |  | 100% | 100% | 65% | 92%
